Results: patent US12012390B2, “Flavone compounds for the treatment and prophylaxis of hepatitis B virus disease” (priority 2018, dated 2024)

Assays:
[1] = system: HBeAg level (surrogate marker for cccDNA) in HepDES19 cells; assay: Engineered HepDES19 primary screen assay (HBeAg as surrogate marker for cccDNA); type: cell-based, HBV; details: Hepatitis B virus, HepDES19, 120 h, read-out: IC50 (HBeAg) in HepDES19 primary screen assay, HepDES19 cells, 5 days incubation with compound, HBeAg by ELISA
From the text: The assay was employed to screen for novel cccDNA inhibitors. HepDES19 is a cccDNA-producing cell line. In this cell line, HBeAg in the cell culture supernatant as surrogate marker, as HBeAg production depends on cccDNA level and activity. HepDES19 is an engineered cell line which contains a 1.1 unit length HBV genome, and pgRNA transcription from the transgene is controlled by Tetracycline (Tet). In the absence of Tet, pgRNA transcription will be induced, but HBV e antigen (HBeAg) could not be produced from this pgRNA due to very short leader sequence before the HBeAg start codon and the start codon is disrupted. Only after cccDNA is formed, the missing leader sequence and start codon mutation would be restored from the 3′-terminal redundancy of pgRNA, and then HBeAg could be synthesized. Therefore, HBeAg could be used as a surrogate marker for cccDNA (Zhou, T. et al., Antiviral Res. (2006), 72(2), 116-124; Guo, H. et al., J. Virol. (2007), 81(22), 12472-12484).
HepDES19 cells were seeded at 2×10^6 cells per T150 flask and cultured with the culture medium (Dulbecco's Modified Eagle Medium: Nutrient Mixture F-12 [DMEM-F12, Gibco Cat. 11320-82], 10% Fetal Bovine Serum [FBS, Clontech Cat. 631101], 0.1 mM Non-Essential Amino Acids Solution [NEAA, Gibco Cat. 11140-050], 50 μg/mL Penicillin-Streptomycin [PS, Invitrogen Cat. 15140-163], 500 μg/mL Geneticin [G418, Invitrogen Cat. 10131-027]) containing 3 μg/mL Tet (Sigma, Cat. 87128) for 5 days. Cells were then seeded at 4×10^6 cells per T150 in the same culture medium as described above in the absence of Tet for 8 days. Cells were then harvested and frozen at density of 2×10^6 cells per mL. For compound testing, the frozen cells were thawed and seeded into 96-well plates at a density of 6×10^4 cells per well. At 24 hrs after seeding, half log serial dilutions of compounds made with Dimethyl sulfoxide (DMSO, Sigma, Cat. D2650) were further diluted with the same culture medium as described above before they were added to the cells to reach desired final compound concentrations and 1% DMSO concentration. Plates were then incubated at 37° C. for another 5 days before measurement of HBeAg level and cell viability. Intracellular HBeAg level were measured with enzyme-linked immunosorbent assay (ELISA) kit (Shanghai Kehua Diagnostic Medical Products Co., Ltd). Cell viability was assessed using Cell Counting Kit-8 (Donjindo, Cat. CK04-20). IC50 values were derived from the dose-response curve using 4 parameter logistic curve fit method.
The compounds of the present invention were tested for their capacity to inhibit extracellular HBeAg level as described herein.

[2] = system: HBV in primary human hepatocytes (PHH); assay: Cryopreserved primary human hepatocytes (PHH) HBV infection assay; type: cell-based; details: Hepatitis B virus, Hepatocyte, 216 h, HBV-infected cryopreserved PHH, 9 days post-compound treatment, extracellular HBsAg by CLIA; read-out: HBsAg IC50
Method: This assay is used to confirm the anti-HBV effect of the compounds in HBV PHH infection assay. Cryopreserved PHH (BioreclamationIVT, Lot YJM) was thawed at 37° C. and gently transferred into pre-warmed InVitroGRO HT medium (BioreclamationIVT, Cat. S03317). The mixture was centrifuged at 70 relative centrifugal force (RCF) for 3 minutes at RT, and the supernatant was discarded. Pre-warmed InVitroGRO CP medium (BioreclamationIVT, Cat #S03316) was added to the cell pellet to gently re-suspend cells. The cells were seeded at the density of 5.8×10^4 cells per well to collagen I coated 96-well plate (Gibco, Cat. A1142803) with the InVitroGRO CP medium. All plates were incubated at 37° C. with 5% CO2 and 85% humidity.
At 20 hours after plating, the medium was changed to PHH culture medium (Dulbecco's Modified Eagle Medium (DMEM)/F12 (1:1) (Gibco, Cat. 11320-033), 10% fetal bovine serum (Gibco Cat. 10099141), 100 U/mL penicillin, 100 μg/mL streptomycin (Gibco, Cat. 151401-122), 5 ng/mL human epidermal growth factor (Invitrogen Cat. PHG0311L), 20 ng/mL dexamethasone (Sigma, Cat. D4902) and 250 ng/mL human recombinant insulin (Gibco, Cat. 12585-014)). And the cells were incubated at 37° C. with 5% CO2 and 85% humidity for 4 hours. The medium was then changed to pre-warmed PHH culture medium containing 4% polyethylene glycol (PEG) MW8000 (Sigma, Cat. P1458-50ML) and 1% DMSO (Sigma, Cat. D2650). 5.8×10^6 genomic equivalents of HBV were added into the medium.
At 24 hours post-infection, the cells were gently washed with PBS and refreshed with PHH culture medium supplemented with 1% DMSO, and 0.25 mg/mL Matrix gel (Corning, Cat. 356237) at 200 μL per well. All plates were immediately placed in at 37° C. CO2 incubator.
24 hours later, serial dilutions of compounds made with DMSO were further diluted with the same culture medium (PHH culture medium supplemented with 1% DMSO and 0.25 mg/mL Matrix gel as described above) before they were added to the cells to reach desired final compound concentrations and 1% DMSO concentration. The medium containing the compounds were refreshed every three days.
At 9 days post-compound treatment, extracellular HBsAg level were measured with Chemiluminescence Immuno Assay (CLIA) kit (Autobio, HBsAg Quantitative CLIA). Extracellular HBV DNA was extracted by MagNA Pure 96 system (Roche) and then determined by quantitative PCR with the following primers and probe: […]
HBsAg IC50 and HBV DNA IC50 values were derived from the dose-response curve using 4 parameter logistic curve fit method. The compounds of formula (I) have HBsAg IC50<20 μM, particularly <1 μM; and HBV DNA IC50<50 μM. Test results of the compounds of this invention as well as the reference compounds in Cryopreserved PHH assay are given in Table 2 and Table 3.

Row | Compound | IC50 [1] [nM] | IC50 [2] [nM]
1 | O=C(O)C1CC(OCCCOc2ccc(-c3cc(=O)c4cccc(Cl)c4o3)cc2)C1 (stereo not shown) [Example 13, 3-[3-[4-(8-chloro-4-oxo-chromen-2-yl)phenoxy]propoxy]cyclobutanecarboxylic acid] | 690 | 1270
2 | O=C(O)c1cccc(OCC(O)COc2ccc(-c3cc(=O)c4cccc(Cl)c4o3)cc2)c1 (stereo not shown) [Example 14, 3-[3-[4-(8-chloro-4-oxo-chromen-2-yl)phenoxy]-2-hydroxy-propoxy]benzoic acid] | 20400 | 19200
3 | O=C(O)C1CC(OCCOc2ccc(-c3cc(=O)c4ccc(F)c(Cl)c4o3)cc2)C1 (stereo not shown) [Example 15, 3-[2-[4-(8-chloro-7-fluoro-4-oxo-chromen-2-yl)phenoxy]ethoxy]cyclobutanecarboxylic acid] | 10300 | 280
4 | COc1ccc2c(=O)cc(-c3ccc(OCCOC4CC(C(=O)O)C4)cc3)oc2c1Cl (stereo not shown) [Example 19, 3-[2-[4-(8-chloro-7-methoxy-4-oxo-chromen-2-yl)phenoxy]ethoxy]cyclobutanecarboxylic acid] | 22200 | 1510
5 | O=C(O)C1CC(OCCOc2ccc(-c3cc(=O)c4ccc(Cl)c(Cl)c4o3)cc2)C1 (stereo not shown) [Example 21, 3-[2-[4-(7,8-dichloro-4-oxo-chromen-2-yl)phenoxy]ethoxy]cyclobutanecarboxylic acid] | 290 | 5100
6 | N#Cc1ccc2c(=O)cc(-c3ccc(OCCOC4CC(C(=O)O)C4)cc3)oc2c1Cl (stereo not shown) [Example 23, 3-[2-[4-(8-chloro-7-cyano-4-oxo-chromen-2-yl)phenoxy]ethoxy]cyclobutanecarboxylic acid] | 21100 | 7110
7 | O=c1cc(-c2ccc(OCCO[C@H]3C[C@@H](C(=O)O)C3)cc2)oc2c(Cl)ccc(O)c12 [Example 24, Cis-3-[2-[4-(8-chloro-5-hydroxy-4-oxo-chromen-2-yl)phenoxy]ethoxy]cyclobutanecarboxylic acid] | 1140 | 4830
8 | COc1ccc(Cl)c2oc(-c3ccc(OCCO[C@H]4C[C@@H](C(=O)O)C4)cc3)cc(=O)c12 [Example 25, Cis-3-[2-[4-(8-chloro-5-methoxy-4-oxo-chromen-2-yl)phenoxy]ethoxy]cyclobutanecarboxylic acid] | 1050 | 930
9 | O=c1cc(-c2ccc(OCCO[C@H]3C[C@@H](C(=O)O)C3)cc2)oc2c(Cl)ccc(Br)c12 [Example 28, Cis-3-[2-[4-(5-bromo-8-chloro-4-oxo-chromen-2-yl)phenoxy]ethoxy]cyclobutanecarboxylic acid] | 2800 | 1920
10 | O=c1cc(-c2ccc(OCCO[C@H]3C[C@@H](C(=O)O)C3)cc2)oc2c(Cl)ccc(Cl)c12 [Example 29, Cis-3-[2-[4-(5,8-dichloro-4-oxo-chromen-2-yl)phenoxy]ethoxy]cyclobutanecarboxylic acid] | 210 | 900
11 | O=c1cc(-c2ccc(OCCO[C@H]3C[C@@H](C(=O)O)C3)cc2)oc2c(Cl)ccc(C3CC3)c12 [Example 30, Cis-3-[2-[4-(8-chloro-5-cyclopropyl-4-oxo-chromen-2-yl)phenoxy]ethoxy]cyclobutanecarboxylic acid] | 130 | 7290
12 | O=c1cc(-c2ccc(OCCO[C@H]3C[C@@H](C(=O)O)C3)cc2)oc2c(Br)cccc12 [Example 33, Cis-3-[2-[4-(8-bromo-4-oxo-chromen-2-yl)phenoxy]ethoxy]cyclobutanecarboxylic acid] | 310 | 680
13 | O=c1cc(-c2cnc(OCCO[C@H]3C[C@@H](C(=O)O)C3)cn2)oc2c(Cl)cccc12 [Example 39, Cis-3-[2-[5-(8-chloro-4-oxo-chromen-2-yl)pyrazin-2-yl]oxyethoxy]cyclobutanecarboxylic acid] | 9010 | 5740
14 | COC(=O)[C@H]1C[C@@H](OCCOc2cnc(-c3cc(=O)c4cccc(Cl)c4o3)cn2)C1 [Example 40, Cis-methyl 3-[2-[5-(8-chloro-4-oxo-chromen-2-yl)pyrazin-2-yl]oxyethoxy]cyclobutanecarboxylate] | 1610 | 7120
15 | O=c1cc(-c2ccc(OCCO[C@H]3C[C@@H](C(=O)O)C3)c(F)c2)oc2c(Cl)cccc12 [Example 42, Cis-3-[2-[4-(8-chloro-4-oxo-chromen-2-yl)-2-fluoro-phenoxy]ethoxy]cyclobutanecarboxylic acid] | 610 | 580
16 | O=c1cc(-c2ccc(OCCO[C@H]3C[C@@H](C(=O)O)C3)c(Cl)c2)oc2c(Cl)cccc12 [Example 43, Cis-3-[2-[2-chloro-4-(8-chloro-4-oxo-chromen-2-yl)phenoxy]ethoxy]cyclobutanecarboxylic acid] | 250 | 220
17 | O=c1cc(-c2ccc(OCCO[C@H]3C[C@@H](C(=O)O)C3)c(Br)c2)oc2c(Cl)cccc12 [Example 44, Cis-3-[2-[2-bromo-4-(8-chloro-4-oxo-chromen-2-yl)phenoxy]ethoxy]cyclobutanecarboxylic acid] | 570 | 40
18 | O=c1cc(-c2ccc(OCCO[C@H]3C[C@@H](C(=O)O)C3)c(C3CC3)c2)oc2c(Cl)cccc12 [Example 45, Cis-3-[2-[4-(8-chloro-4-oxo-chromen-2-yl)-2-cyclopropyl-phenoxy]ethoxy]cyclobutanecarboxylic acid] | 13200 | 530
19 | N#Cc1cc(-c2cc(=O)c3cccc(Cl)c3o2)ccc1OCCOC1CC(C(=O)O)C1 (stereo not shown) [Example 46, 3-[2-[4-(8-chloro-4-oxo-chromen-2-yl)-2-cyano-phenoxy]ethoxy]cyclobutanecarboxylic acid] | 16000 | 130
20 | Cc1cc(-c2cc(=O)c3cccc(Cl)c3o2)ccc1OCCOC1CC(C(=O)O)C1 (stereo not shown) [Example 47, 3-[2-[4-(8-chloro-4-oxo-chromen-2-yl)-2-methyl-phenoxy]ethoxy]cyclobutanecarboxylic acid] | 40 | 240
